The values that follow are results of earlier work, collected in patent publication US20250099475A1, “METHODS OF TREATING HYPERTENSION BY PERIODIC SUPPRESSION OF ALDOSTERONE SYNTHASE” (Mineralys Therapeutics, Inc., priority 2022, published 2025).

The conditions of this data set: in vivo; cited from earlier work.

As to `CC(=O)S[C@@H]1CC2=CC(=O)CC[C@]2(C)[C@H]2CC[C@@]3(C)[C@@H](CC[C@@]34CCC(=O)O4)[C@H]12` [Spironolactone], the risk of hyperkalemia is recorded as ≤ 10%.
